Assay results from patent publication US12103914B2, “Compositions of biologically active menaquinol derivatives and methods of treatment” (Epizon Pharma, Inc., priority 2020, dated 2024).

System: vascular calcification and tissue calcification in patient with moderate calciphylaxis
Experiment: Treatment of patients diagnosed with moderate calciphylaxis (case examples)
Format: in vivo, human
Protocol: This example describes the administration of the disclosed compounds to subjects diagnosed with calciphylaxis. Typical symptoms include presentation of characteristic painful skin lesions (Nigwekar et al. (2015) Calciphylaxis: Risk Factors, Diagnosis, and Treatment. Am. J. Kidney Dis. 66:133-46). Definitive diagnosis of calciphylaxis is achieved via skin biopsy. Further conditions need to be considered for correct diagnosis.
The dosage form is a 5 mg, 10 mg, 25 mg, 50 mg or 100 mg soft-gel capsule. Two 50 mg capsules are administered once daily to the 100 mg dosage cohort. […]

For Potassium salt of Menaquinol-7, the “reduction in tissue calcification” value (70 kg patient, 50 mg, 3 months) was 20% and the “reduction in vascular calcification (suggested by change in examined biomarker levels)” value (70 kg patient, 50 mg, 3 months) was ~25%.
With Calcium salt of Menaquinol-7 the “reduction in tissue calcification” value (45 kg patient, 20 mg, 10 weeks) was 15%, the “reduction in vascular calcification (suggested by change in examined biomarker levels)” value (45 kg patient, 20 mg, 10 weeks) was ~20% and the “reduction in tissue calcification” value (65 kg patient, 100 mg, 8 weeks) was 10%. The “reduction in vascular calcification (suggested by change in examined biomarker levels)” value (65 kg patient, 100 mg, 8 weeks) was ~10%.
